14 substances from patent publication US10463709B2, “Short synthetic peptide for treating diseases and/or conditions related to angiogenesis” (MacKay Memorial Hospital, priority 2015, dated 2019) can be followed below.

For one assay, the system named is RPMI8226 cells. Nature of the assay: MTT assay, VEGF-induced proliferation of RPMI8226 cells. The class given is cell-based. Conditions: for effect on VEGF-induced proliferation of RPMI8226 cells: VEGF 50 ng/ml, 25 μM peptide, 24 hrs, MTT; for biological activity of the analogue relative to the 7-mer (summary statement of the description): summary of Example 1 findings. How it is done: The multiple myeloma line RPMI8226 was cultivated in complex medium (RPMI1640) supplemented with 10% (vol/vol) heat-inactivated fetal calf serum (Invitrogen), 50 μg/mL penicillin, 50 μg/mL streptomycin, and 2 mM L-glutamine at 37° C. in a 5% CO2 atmosphere. RPMI8226 cells were cultured in serum-free RPMI1640 medium for 24 hrs, and then cells were seeded in 48-well culture plates (3×10^5 cells/well) and continued to culture in 0.5 ml fresh serum-free RPMI1640 medium containing 25 μM peptide for another 24 hrs. The cell viability was determined by the MTT assay. Briefly, 50 μL of MTT stock solution (50 μL) (5 mg MTT dissolved in 1 ml of sterile PBS) was added to each culture well. In addition, 50 μL of the MTT stock solution was added in 500 μL of medium as the negative control. The culture plate was incubated at 37° C. for 4 hours. Aliquots (450 μl) from each sample were taken to a new well of 48-well culture plate, adding 100 μL DMSO, mixing thoroughly using the pipette and reacted at 37° C. for 20 min and read absorbance at 570 nm. These synthesized peptides were then subject to MTT assay, in which vascular endothelial growth factor (VEGF) was used as a stimulant to induce cell proliferation. Results are depicted in FIGS. 1 to 4.

Assay [1] deals with HUVECs. Nature of the assay: VEGF-induced HUVEC proliferation assay. The class given is cell-based. To be noted: vs untreated HUVECs. How it is done:
HUVECs (1×10^5 cells per well of 6-well plate) were grown in Medium 200 with Low Serum Growth Supplement (LSGS Kit, supplement contains 1.9% FBS, 3 ng/ml bFGF, 10 μg/ml heparin, 1 μg/ml hydrocortisone, and 10 ng/ml EGF). Culture plates were coated with 2% gelatin. Cells (passages 4-8) were cultured at 37° C. in a humidified atmosphere of 5% CO2. […]
HUVECs (1×10^5 cells per well of 6-well plate) in Medium 200 supplemented with LSGS Kit were allowed to grow onto 6-well plates coated with 2% gelatin for 24 hours at 37° C. in 5% CO2. The culture medium was then replaced with serum free Medium 200 overnight. […] Then, cells were harvested by trypsin-EDTA and counted using a hemocytometer.

The test system of assay [2] is HUVECs. Put plainly: Endothelial cell capillary-like tube formation assay. The class given is cell-based. Conditions: vs untreated HUVECs. Here is the method:
To examine the effect of the present synthetic peptide on in vitro angiogenesis, growth factor-reduced matrigel was pipetted into pre-chilled 24-well plates (150 μl matrigel per well) and polymerized for 45 min at 37° C. […] In this experiment, images were captured using a Cannon camera on Zeiss inverted microscope with magnification ×40 and tube length was quantified using Image analysis software (Image-Pro Plus). The control peptide as used in the present invention has the sequence of DLYRVR (SEQ ID NO: 10).

For the next assay, the system named is rat aortic ring. Nature of the assay: Rat aortic ring assay (ex vivo microvessel sprouting). Set-up: species or system Sprague Dawley rats. To be noted: beta-FGF induced; peptide 50 μM. Here is the method:
Thoracic aortas were removed from euthanized 10-week-old male Sprague Dawley rats, and gently stripped off periaortic fibroadipose tissue. Aortas were sectioned to about 2-mm length rings, which were embedded in Matrigel. To induce angiogenesis, human recombinant bFGF (50 ng/ml) or bFGF plus the peptide (50 μM) was added in Matrigel. Gel (200 μl) containing an aortic ring was polymerized in 12-well plates (37° C. for 30 min) and then incubated with 1 ml of Medium 200 supplemented with 100 units/ml penicillin, and […] streptomycin and 2% FBS at 37 ° C. The cultures were propagated at 37 ° C. in a humidified incubator for up to 7 days. Sprouts were recorded using an inverted microscope platform (Leica DM16000B) with bright-field optics. Each ring was scored by three independent observers on a scale 0-4 depending on the degree of sprouting vessel being observed (0=no sprouting, 4=profuse sprouting). The experiment was repeated in triplicates.

The subject of the next assay is B16-F10 melanoma cells. Put plainly: Experimental pulmonary metastasis in mice. Format: in vivo, C57BL/6 mice. Conditions: for effect on number of colonies on the surface of the lung / in vivo metastasis / No. lung colonies: 10 mg/Kg intraperitoneal every 2 days; for No. lung colonies: day 8, n = 5; for Inhibition (%): lung colonies vs vehicle, 10 mg/Kg. Here is the method:
2×10^5 B16-F10 cells were suspended in 100 μl PBS and checked for viability using trypan blue staining (>95%). The B16-F10 cells were then injected into the tail vein of the 6-week-old female C57BL/6 mice; while vehicle (DMSO), the present synthetic peptide or the control peptide (10 mg/kg) were administered by intraperitoneal injections every 2 days after the B16-F10 cell injection. Five mice were used for each group. On day 8 after inoculation of cells, the lungs were removed, and the number of visible colonies on the surface of the lungs were counted using a dissecting microscope.
Metastasis is the foremost cause of death from cancer. In this example, to investigate the efficacy of the present synthetic peptide on the metastasis of cancer cells, B16-F10 cells were injected into the tail vein of a mouse, the animal was then treated with the present synthetic peptide (7-mer or 7-mer DD, 10 mg/Kg) by intraperitoneal injections every 2 days. Upon completion of the experiment, the lungs were then removed and the tumor colonies visible to the eyes were then counted. Results are depicted in FIG. 10.

In assay [3] the test system is STZ-induced diabetic mice. Put plainly: Vascular abnormalities in the retina of diabetic mice. The class given is in vivo. Conditions: for Fluorescence Intensity (Fold): leaked FITC-BSA in entire retina, vs vehicle. Here is the method: Diabetic mice were generated by a single intraperitoneal injection of streptozotocin (STZ) (150 mg/kg body weight). STZ was freshly prepared in 0.1 M citrate buffer (pH 4.5). After injection, mice were supplied with 10% sucrose overnight to prevent sudden hypoglycemic shock. After 1 week, mice with non-fasting blood glucose levels >500 mg/dl were defined as diabetic and used for the experiments. DMSO Vehicle or the present synthetic peptide (10 mg/kg; n≥3 per peptide) were administered by intraperitoneal injections twice a day. After treatment for 24 h, mice were intraperitoneal injected with 100 mg/kg of BSA-FITC for further 30 min.
To determine vascular lesions (hemorrhaging areas) in retina, the animals were euthanized by CO2 inhalation, and the eyes were enucleated and fixed by 2% paraformaldehyde for 2 hr and flat-mounted onto glass slides to obtain optical sections by an epifluorescence microscopy. Vascular lesions in the retina was scored in all four retinal quadrants of flat mounts by using a 20× objective. Six microscopic fields were sampled in each quadrant in both the central and peripheral retina, and data were presented as the average number of lesions/retina.
Vascular FITC-BSA leakage was determined by a fluorescence spectrofluorometer based on standard curves of FITC-BSA at excitation and emission wavelengths of 488 and 535 nm, respectively, and then normalized to a non-injected control retina. For this analysis, retinas were dissected from treated and untreated diabetic mice after BSA-FITC injections, and each was solubilized in 300 μL ice-cold PBS.
Diabetic retinopathy is characterized by blood-retinal barrier (BRB) breakdown and neurotoxicity. To evaluate the possible beneficial effect of the present synthetic peptides on diabetic retinopathy, STZ-induced diabetic mice were intraperitoneally injected with 7-mer peptide, DMSO vehicle or the control peptide (SEQ ID NO: 22). The retinal vascular abnormality was then monitored by detecting the extravasation of BSA-fluorescein. Results are depicted in FIG. 11.

Where [4] appears, read: VEGF (10 ng/mL) + 25 μM peptide.

“And” between values parts separate entries of the source, which are not always exact repeats. Equal entries are not always repeated. Square brackets hold non-standard residues; d marks the D form. Ends that are not written are not given here.

Turning to “NH2-Asp-Leu-Tyr-Lys-Val-Pro-Ser-COOH (DLYKVPS; not fully specified (N-terminus, C-terminus); printed as NH2-Asp-Leu-Tyr-Lys-Val-Pro-Ser-COOH) [7-mer KP]”, the “effect on VEGF-induced proliferation of RPMI8226 cells” value (“effect on VEGF-induced proliferation” for short) in the assay on RPMI8226 cells was “could sustain 7-mer bioactivity, only partly”. Further, the “Cell number (Fold)” value in the assay with HUVECs [1] (setting [4]) is on record as 1.02 ± 0.075 Fold. For the same substance, the “Tube length (Fold)” value with HUVECs [2] (setting [4]) is 1.62 ± 0.29 Fold. In addition, the “level of sprouting microvessels around the aortic ring” value with rat aortic ring is “inhibited”. Moreover, in the assay on B16-F10 melanoma cells, the “effect on number of colonies on the surface of the lung / in vivo metastasis” value is “may suppress in vivo metastasis”, the No. lung colonies amounted to 69 ± 11.5 and the “Inhibition (%)” value is listed as 69.3%. Further, in assay [3], the “extravasation of FITC-BSA” value is given as “may significantly prevent” and the “Fluorescence Intensity (Fold)” value is 0.37 ± 0.13 Fold.

For the substance “NH2-Val-Leu-Tyr-Arg-Val-Arg-Ser-COOH (VLYRVRS; not fully specified (N-terminus, C-terminus); printed as NH2-Val-Leu-Tyr-Arg-Val-Arg-Ser-COOH) [7-mer (D→V)]”, in the assay with RPMI8226 cells, the “effect on VEGF-induced proliferation” value was “could sustain 7-mer bioactivity, only partly” and the “biological activity of the analogue relative to the 7-mer (summary statement of the description)” value is on record as “relatively the same bioactivity”.

Take “NH2-Asp-Leu-Tyr-(D-Arg)-Val-Arg-Ser-COOH (H-DLY[dR]VRS-OH) [7-mer DR]”: in the assay with RPMI8226 cells, the “biological activity of the analogue relative to the 7-mer (summary statement of the description)” value is “lose its biological activity”.

Consider “NH2-Asp-Ile-Tyr-Arg-Val-Pro-Ser-COOH (DIYRVPS; not fully specified (N-terminus, C-terminus); printed as NH2-Asp-Ile-Tyr-Arg-Val-Pro-Ser-COOH) [7-mer IP]”, for which the “effect on VEGF-induced proliferation” value in the assay on RPMI8226 cells is “could sustain 7-mer bioactivity, only partly”. Besides, in the assay on HUVECs [1] (setting [4]), the “Cell number (Fold)” value came out at 1.05 ± 0.067 Fold. Further, the “Tube length (Fold)” value with HUVECs [2] (setting [4]) was found to be 1.66 ± 0.20 Fold. Besides, the “level of sprouting microvessels around the aortic ring” value with rat aortic ring was “inhibited”. Also, in the assay with B16-F10 melanoma cells, the “effect on number of colonies on the surface of the lung / in vivo metastasis” value is given as “may suppress in vivo metastasis”, the No. lung colonies worked out at 63 ± 9.4 and the “Inhibition (%)” value came to 72.0%. In assay [3], the “extravasation of FITC-BSA” value was “may significantly prevent” and the “Fluorescence Intensity (Fold)” value was 0.38 ± 0.12 Fold.

Take H-D[dL]YRVRS-OH [7-mer DL]: the “biological activity of the analogue relative to the 7-mer (summary statement of the description)” value in the assay with RPMI8226 cells was “lose its biological activity”.

Turning to “NH2-Leu-Leu-Tyr-Arg-Val-Arg-Ser-COOH (LLYRVRS; not fully specified (N-terminus, C-terminus); printed as NH2-Leu-Leu-Tyr-Arg-Val-Arg-Ser-COOH) [7-mer (D→L)]”, in the assay with RPMI8226 cells, the “effect on VEGF-induced proliferation” value was “could sustain 7-mer bioactivity, only partly” and the “biological activity of the analogue relative to the 7-mer (summary statement of the description)” value was “relatively the same bioactivity”.

On to VEGF [reference compound], for which the “Cell number (Fold)” value in the assay on HUVECs [1] (VEGF (10 ng/mL) alone) is 1.62 Fold and 1.62 ± 0.070 Fold. The “Tube length (Fold)” value in the assay on HUVECs [2] (VEGF (10 ng/mL) alone) is given as 3.43 ± 0.32 Fold.

For “NH2-Asp-Leu-Tyr-Arg-Val-Gln-Ser-COOH (DLYRVQS; not fully specified (N-terminus, C-terminus); printed as NH2-Asp-Leu-Tyr-Arg-Val-Gln-Ser-COOH) [7-mer (R2→Q)]”, in the assay on RPMI8226 cells, the “effect on VEGF-induced proliferation” value is given as “could sustain 7-mer bioactivity, only partly”.

“NH2-Asp-Ala-Tyr-Arg-Val-Arg-Ser-COOH (DAYRVRS; not fully specified (N-terminus, C-terminus); printed as NH2-Asp-Ala-Tyr-Arg-Val-Arg-Ser-COOH) [7-mer La]”: the “effect on VEGF-induced proliferation” value in the assay with RPMI8226 cells is “sustained part of the 7-mer activity”.

Take “NH2-Asp-Leu-(D-Tyr)-Arg-Val-Arg-Ser-COOH (H-DL[dY]RVRS-OH) [7-mer DY]”: the “biological activity of the analogue relative to the 7-mer (summary statement of the description)” value with RPMI8226 cells is “lose its biological activity”. In addition, the “Cell number (Fold)” value with HUVECs [1] (setting [4]) amounted to 1.63 ± 0.077 Fold.

“NH2-Phe-Leu-Tyr-Arg-Val-Arg-Ser-COOH (FLYRVRS; not fully specified (N-terminus, C-terminus); printed as NH2-Phe-Leu-Tyr-Arg-Val-Arg-Ser-COOH) [7-mer (D→F)]”: in the assay on RPMI8226 cells, the “effect on VEGF-induced proliferation” value was “could sustain 7-mer bioactivity, only partly” and the “biological activity of the analogue relative to the 7-mer (summary statement of the description)” value was “relatively the same bioactivity”.

For “NH2-Asp-Val-Phe-Arg-Val-Arg-Thr-COOH (DVFRVRT; not fully specified (N-terminus, C-terminus); printed as NH2-Asp-Val-Phe-Arg-Val-Arg-Thr-COOH) [7-mer VFT]”, in the assay on RPMI8226 cells, the “effect on VEGF-induced proliferation” value is “could sustain 7-mer bioactivity, only partly” and the “biological activity of the analogue relative to the 7-mer (summary statement of the description)” value is given as “relatively the same bioactivity”.

On to “NH2-Ala-Leu-Tyr-Arg-Val-Arg-Ser-COOH (ALYRVRS; not fully specified (N-terminus, C-terminus); printed as NH2-Ala-Leu-Tyr-Arg-Val-Arg-Ser-COOH) [7-mer Da]”, for which the “effect on VEGF-induced proliferation” value in the assay with RPMI8226 cells is “sustained part of the 7-mer activity”.

“NH2-Asp-(D-Leu)-Tyr-Arg-Val-(D-Arg)-Ser-COOH (H-D[dL]YRV[dR]S-OH) [7-mer DR2]”: in the assay with RPMI8226 cells, the “biological activity of the analogue relative to the 7-mer (summary statement of the description)” value was “lose its biological activity”.
